# Test results from ChEMBL document CHEMBL3885861, “Open TG-GATES”.
# Organism: Rattus norvegicus
# Assay: Open TG-GATES - Regimen: Single
# Format: toxicity, organism-based, Sprague-Dawley
# Design: regimen Single, gender Male, age 6 weeks
# Details: in vivo, po, route gavage; for Bas / Eos / Fbg / Hb / Ht / Lym / MCHC / Mono / Plat / RBC / Ret / WBC / MCH / Neu / PT: tissue Blood; for KIDNEY_L / KIDNEY_R / KIDNEY_TOTAL: tissue Kidney; for LIVER: tissue Liver
# [1] = 40 mg/kg, 24 h, tissue Plasma, dose level Low
# [2] = 120 mg/kg, 3 h, dose level Middle
# [3] = 120 mg/kg, 3 h, tissue Plasma, dose level Middle
# [4] = 120 mg/kg, 6 h, dose level Middle
# [5] = 120 mg/kg, 6 h, tissue Plasma, dose level Middle
# [6] = 120 mg/kg, 9 h, dose level Middle
# [7] = 120 mg/kg, 9 h, tissue Plasma, dose level Middle
# [8] = 120 mg/kg, 24 h, dose level Middle
# [9] = 120 mg/kg, 24 h, tissue Plasma, dose level Middle
# [10] = 400 mg/kg, 3 h, dose level High
# [11] = 400 mg/kg, 3 h, tissue Plasma, dose level High
# [12] = 400 mg/kg, 6 h, dose level High
# [13] = 400 mg/kg, 6 h, tissue Plasma, dose level High
# [14] = 400 mg/kg, 9 h, dose level High
# [15] = 400 mg/kg, 9 h, tissue Plasma, dose level High
# [16] = 400 mg/kg, 24 h, dose level High
# [17] = 400 mg/kg, 24 h, tissue Plasma, dose level High
compound,measurement,setting,value
CCC(C)(C)C(=O)O[C@H]1C[C@@H](C)C=C2C=C[C@H](C)[C@H](CC[C@@H]3C[C@@H](O)CC(=O)O3)[C@H]21 [SIMVASTATIN],TC,[1],80.8 mg/dL
same,TG,[1],87.4 mg/dL
same,TP,[1],5.4 g/dL
same,gamma-GTP,[1],1.8 IU/L
same,TERMINAL_BW,[2],200.4 g
same,Bas,[2],0%
same,Eos,[2],1%
same,Fbg,[2],194.4 mg/dL
same,Hb,[2],12.5 g/dL
same,Ht,[2],37.9%
same,Lym,[2],81.8%
same,MCHC,[2],32.9%
same,Mono,[2],6.4%
same,Plat,[2],111.3 x10_4/uL
same,RBC,[2],573.6 x10_4/ul
same,Ret,[2],9.1%
same,WBC,[2],131.2 x10_2/uL
same,KIDNEY_L,[2],0.9 g
same,KIDNEY_R,[2],1 g
same,KIDNEY_TOTAL,[2],1.9 g
same,LIVER,[2],9.6 g
same,ALP,[3],1022 IU/L
same,ALT,[3],34.2 IU/L
same,AST,[3],66.6 IU/L
same,BUN,[3],11.6 mg/dL
same,CRE,[3],0.5 mg/dL
same,DBIL,[3],0.032 mg/dL
same,IP,[3],8.9 mg/dL
same,K,[3],4.7 meq/L
same,LDH,[3],117.2 IU/L
same,Na,[3],137.8 meq/L
same,PL,[3],134.8 mg/dL
same,RALB,[3],3.5 g/dL
same,TBIL,[3],0.3 mg/dL
same,TC,[3],74 mg/dL
same,TG,[3],56 mg/dL
same,TP,[3],5.5 g/dL
same,gamma-GTP,[3],1.6 IU/L
same,TERMINAL_BW,[4],200.1 g
same,Bas,[4],0%
same,Eos,[4],0.6%
same,Fbg,[4],203.2 mg/dL
same,Hb,[4],12.9 g/dL
same,Ht,[4],39.4%
same,Lym,[4],77.6%
same,MCH,[4],21.6 pg
same,MCHC,[4],32.9%
same,Mono,[4],6%
same,Neu,[4],15.8%
same,PT,[4],11.9 s
same,Plat,[4],114.7 x10_4/uL
same,RBC,[4],600.4 x10_4/ul
same,Ret,[4],8.4%
same,WBC,[4],123.6 x10_2/uL
same,KIDNEY_L,[4],0.9 g
same,KIDNEY_R,[4],0.9 g
same,KIDNEY_TOTAL,[4],1.8 g
same,LIVER,[4],8.9 g
same,ALP,[5],912.2 IU/L
same,ALT,[5],28.6 IU/L
same,AST,[5],57.2 IU/L
same,CRE,[5],0.5 mg/dL
same,DBIL,[5],0.086 mg/dL
same,IP,[5],9.6 mg/dL
same,K,[5],4.5 meq/L
same,LDH,[5],94 IU/L
same,Na,[5],137.6 meq/L
same,PL,[5],119 mg/dL
same,RALB,[5],3.5 g/dL
same,TBIL,[5],0.4 mg/dL
same,TC,[5],66.4 mg/dL
same,TG,[5],44 mg/dL
same,TP,[5],5.4 g/dL
same,gamma-GTP,[5],1.4 IU/L
same,TERMINAL_BW,[6],199.1 g
same,Bas,[6],0%
same,Eos,[6],1%
same,Fbg,[6],217.2 mg/dL
same,Hb,[6],12.9 g/dL
same,Ht,[6],39.5%
same,Lym,[6],77%
same,MCH,[6],21.6 pg
same,MCHC,[6],32.6%
same,Mono,[6],6%
same,Neu,[6],16.6%
same,PT,[6],11.8 s
same,Plat,[6],106.6 x10_4/uL
same,RBC,[6],598.2 x10_4/ul
same,Ret,[6],9%
same,WBC,[6],82.6 x10_2/uL
same,KIDNEY_L,[6],0.9 g
same,KIDNEY_R,[6],0.9 g
same,KIDNEY_TOTAL,[6],1.8 g
same,LIVER,[6],8.3 g
same,ALP,[7],788.6 IU/L
same,ALT,[7],30.8 IU/L
same,AST,[7],57.4 IU/L
same,CRE,[7],0.5 mg/dL
same,DBIL,[7],0.026 mg/dL
same,K,[7],4.7 meq/L
same,LDH,[7],88.2 IU/L
same,Na,[7],137.6 meq/L
same,PL,[7],119.4 mg/dL
same,RALB,[7],3.7 g/dL
same,TBIL,[7],0.3 mg/dL
same,TC,[7],70.6 mg/dL
same,TG,[7],29.6 mg/dL
same,TP,[7],5.4 g/dL
same,gamma-GTP,[7],1 IU/L
same,TERMINAL_BW,[8],207.4 g
same,Bas,[8],0%
same,Eos,[8],1%
same,Fbg,[8],209.2 mg/dL
same,Hb,[8],12.8 g/dL
same,Ht,[8],39.1%
same,Lym,[8],79.2%
same,MCHC,[8],32.8%
same,Mono,[8],6.2%
same,Neu,[8],14%
same,Plat,[8],123 x10_4/uL
same,RBC,[8],586 x10_4/ul
same,Ret,[8],8.3%
same,WBC,[8],87 x10_2/uL
same,KIDNEY_L,[8],1 g
same,KIDNEY_R,[8],1 g
same,KIDNEY_TOTAL,[8],2 g
same,ALP,[9],811 IU/L
same,ALT,[9],44 IU/L
same,AST,[9],67.8 IU/L
same,BUN,[9],18 mg/dL
same,CRE,[9],0.5 mg/dL
same,DBIL,[9],0.044 mg/dL
same,IP,[9],7.5 mg/dL
same,K,[9],4.7 meq/L
same,LDH,[9],127.8 IU/L
same,Na,[9],139.6 meq/L
same,PL,[9],129.4 mg/dL
same,RALB,[9],3.9 g/dL
same,TBIL,[9],0.4 mg/dL
same,TC,[9],69.4 mg/dL
same,TP,[9],5.5 g/dL
same,gamma-GTP,[9],2.4 IU/L
same,TERMINAL_BW,[10],201.6 g
same,Bas,[10],0%
same,Eos,[10],0.8%
same,Fbg,[10],211.2 mg/dL
same,Hb,[10],12.2 g/dL
same,Ht,[10],37.3%
same,Lym,[10],80.4%
same,MCH,[10],21.5 pg
same,MCHC,[10],32.8%
same,Mono,[10],8.4%
same,Neu,[10],10.8%
same,PT,[10],11.3 s
same,Plat,[10],110.1 x10_4/uL
same,RBC,[10],569 x10_4/ul
same,Ret,[10],10.9%
same,WBC,[10],116.1 x10_2/uL
same,KIDNEY_L,[10],1 g
same,KIDNEY_R,[10],1 g
same,KIDNEY_TOTAL,[10],2 g
same,LIVER,[10],9.3 g
same,ALP,[11],914.4 IU/L
same,ALT,[11],30.8 IU/L
same,AST,[11],61.6 IU/L
same,BUN,[11],11.8 mg/dL
same,CRE,[11],0.5 mg/dL
same,DBIL,[11],0.062 mg/dL
same,IP,[11],8.3 mg/dL
same,K,[11],4.7 meq/L
same,LDH,[11],107.8 IU/L
same,Na,[11],136.8 meq/L
same,PL,[11],131.4 mg/dL
same,RALB,[11],3.6 g/dL
same,TBIL,[11],0.3 mg/dL
same,TC,[11],74.2 mg/dL
same,TG,[11],37 mg/dL
same,TP,[11],5.6 g/dL
same,gamma-GTP,[11],1.2 IU/L
same,TERMINAL_BW,[12],205 g
same,Bas,[12],0%
same,Eos,[12],1%
same,Fbg,[12],209.4 mg/dL
same,Hb,[12],12.5 g/dL
same,Ht,[12],38.1%
same,Lym,[12],80.8%
same,MCH,[12],21.6 pg
same,MCHC,[12],32.7%
same,Mono,[12],4.2%
same,Neu,[12],14.6%
same,PT,[12],12.1 s
same,Plat,[12],109.4 x10_4/uL
same,RBC,[12],578.2 x10_4/ul
same,Ret,[12],11%
same,KIDNEY_L,[12],1 g
same,KIDNEY_R,[12],1 g
same,KIDNEY_TOTAL,[12],1.9 g
same,LIVER,[12],8.8 g
same,ALP,[13],979 IU/L
same,ALT,[13],29.4 IU/L
same,AST,[13],60.2 IU/L
same,BUN,[13],9.8 mg/dL
same,CRE,[13],0.5 mg/dL
same,DBIL,[13],0.078 mg/dL
same,IP,[13],9.6 mg/dL
same,K,[13],4.9 meq/L
same,LDH,[13],86 IU/L
same,Na,[13],137.2 meq/L
same,PL,[13],108 mg/dL
same,RALB,[13],3.4 g/dL
same,TBIL,[13],0.4 mg/dL
same,TC,[13],59 mg/dL
same,TG,[13],41.2 mg/dL
same,TP,[13],5.5 g/dL
same,gamma-GTP,[13],1.4 IU/L
same,TERMINAL_BW,[14],198.2 g
same,Bas,[14],0%
same,Eos,[14],0.6%
same,Fbg,[14],204.6 mg/dL
same,Hb,[14],12.5 g/dL
same,Ht,[14],37.7%
same,Lym,[14],80.8%
same,MCHC,[14],33.1%
same,Mono,[14],3.2%
same,Neu,[14],15.2%
same,PT,[14],12.6 s
same,Plat,[14],110.7 x10_4/uL
same,RBC,[14],576.4 x10_4/ul
same,Ret,[14],9.6%
same,WBC,[14],131.2 x10_2/uL
same,KIDNEY_L,[14],0.9 g
same,KIDNEY_R,[14],0.9 g
same,KIDNEY_TOTAL,[14],1.9 g
same,LIVER,[14],7.8 g
same,ALP,[15],778 IU/L
same,ALT,[15],30.2 IU/L
same,AST,[15],61.2 IU/L
same,BUN,[15],10.2 mg/dL
same,CRE,[15],0.6 mg/dL
same,DBIL,[15],0.066 mg/dL
same,GLC,[15],209 mg/dL
same,K,[15],5.2 meq/L
same,LDH,[15],86 IU/L
same,Na,[15],137.4 meq/L
same,PL,[15],100 mg/dL
same,RALB,[15],3.5 g/dL
same,TBIL,[15],0.3 mg/dL
same,TC,[15],56.8 mg/dL
same,TG,[15],24 mg/dL
same,TP,[15],5.1 g/dL
same,gamma-GTP,[15],1.2 IU/L
same,TERMINAL_BW,[16],201.5 g
same,Bas,[16],0%
same,Eos,[16],0.8%
same,Fbg,[16],218.6 mg/dL
same,Hb,[16],13.9 g/dL
same,Ht,[16],42.3%
same,Lym,[16],80.6%
same,MCHC,[16],32.8%
same,Mono,[16],4.6%
same,Neu,[16],14.4%
same,PT,[16],11.3 s
same,Plat,[16],125.3 x10_4/uL
same,RBC,[16],647.8 x10_4/ul
same,Ret,[16],7.9%
same,WBC,[16],86.8 x10_2/uL
same,KIDNEY_L,[16],1 g
same,KIDNEY_R,[16],1 g
same,KIDNEY_TOTAL,[16],1.9 g
same,LIVER,[16],9.9 g
same,ALP,[17],760.8 IU/L
same,ALT,[17],99 IU/L
same,AST,[17],81.6 IU/L
same,BUN,[17],15.2 mg/dL
same,CRE,[17],0.6 mg/dL
same,DBIL,[17],0.07 mg/dL
same,IP,[17],7.1 mg/dL
same,K,[17],5.2 meq/L
same,LDH,[17],117.6 IU/L
same,Na,[17],137.4 meq/L
same,PL,[17],93.6 mg/dL
same,RALB,[17],3.8 g/dL
same,TBIL,[17],0.4 mg/dL
same,TC,[17],53.6 mg/dL
same,TG,[17],38.4 mg/dL
same,TP,[17],5.4 g/dL
same,gamma-GTP,[17],1.4 IU/L
